Experimental data taken from article PMC5358098 (ACS chemical neuroscience, 2016).
Where two headings read alike, the source gives them in different places.

How the values were obtained:
CB1R [1] = molecular target: T1, CB1R (Homo sapiens, UniProt P21554); assay: [3H]SR141716A equilibrium binding, hCB1R CHO cell membranes
CB1R [2] = molecular target: T1, CB1R; assay: cell-based; assay type: cell-based
hCB1R = assay: Operational model bias analysis, HEK293A cells; assay type: cell-based, human; conditions: HEK293A; for ΔΔlog R β-arrestin1/cAMP / ΔΔlog R β-arrestin1/pPLCβ3: reference 2-AG + GAT100
CB1R [3] = assay type: cell-based; conditions: mean of data for the pathway (Table 3), all cells and orthosteric ligands
CB1R [4] = molecular target: T2, CB1R (Mus musculus, UniProt P47746); assay type: cell-based; conditions: Neuro2a, 10 min
CB1R [5] = molecular target: T2, CB1R; assay: Operational model bias analysis, STHdh^Q7/Q7 cells; conditions: STHdh^Q7/Q7
CB1R [6] = molecular target: T1, CB1R; assay type: cell-based; conditions: HEK293A, 10 min
CB1R [7] = assay type: cell-based; conditions: mean of data for the pathway (Table 2), all cells and orthosteric ligands
CB1R [8] = molecular target: T2, CB1R; assay type: cell-based; conditions: Neuro2a, 10 min; remark: listed apart in the source
CB1R [9] = molecular target: T1, CB1R; assay type: cell-based; conditions: Neuro2a, 30 min
CB1R [10] = molecular target: T1, CB1R; assay: cell-based
CB1R [11] = conditions: cited from earlier work
CB1R [12] = molecular target: T2, CB1R; assay: Operational model bias analysis, Neuro2a cells; assay type: cell-based; conditions: for ΔΔlog R β-arrestin1/pPLCβ3: reference 2-AG + GAT100
CB1R [13] = molecular target: T1, CB1R; assay type: cell-based; conditions: HEK293A, 30 min
CB1R [14] = tested on: CB1R
CB1R [15] = molecular target: T2, CB1R; conditions: STHdh^Q7/Q7; 1 μM + 500 nM CP55,940
CB1R [16] = molecular target: T1, CB1R; assay: cell-based; assay type: cell-based; remark: listed apart in the source
[17] = 500 nM 2-AG + 1 nM-10 μM allosteric modulator
[18] = 500 nM AEA + 1 nM-10 μM allosteric modulator
[19] = 500 nM CP55,940 + 1 nM-10 μM allosteric modulator

T2 sequence (P47746 whole entry): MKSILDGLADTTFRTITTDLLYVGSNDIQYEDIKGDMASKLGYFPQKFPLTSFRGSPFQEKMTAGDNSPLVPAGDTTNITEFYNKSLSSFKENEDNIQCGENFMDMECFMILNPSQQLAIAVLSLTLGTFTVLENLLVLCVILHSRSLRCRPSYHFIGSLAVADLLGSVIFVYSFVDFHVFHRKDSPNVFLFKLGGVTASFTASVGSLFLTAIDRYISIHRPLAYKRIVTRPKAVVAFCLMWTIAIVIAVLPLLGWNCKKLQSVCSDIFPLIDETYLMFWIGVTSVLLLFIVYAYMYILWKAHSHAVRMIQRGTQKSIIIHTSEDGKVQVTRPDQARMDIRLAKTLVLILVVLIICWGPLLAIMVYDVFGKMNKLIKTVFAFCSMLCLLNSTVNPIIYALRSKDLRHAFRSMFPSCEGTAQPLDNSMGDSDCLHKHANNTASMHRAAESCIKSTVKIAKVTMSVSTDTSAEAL
T1 sequence (P21554 whole entry): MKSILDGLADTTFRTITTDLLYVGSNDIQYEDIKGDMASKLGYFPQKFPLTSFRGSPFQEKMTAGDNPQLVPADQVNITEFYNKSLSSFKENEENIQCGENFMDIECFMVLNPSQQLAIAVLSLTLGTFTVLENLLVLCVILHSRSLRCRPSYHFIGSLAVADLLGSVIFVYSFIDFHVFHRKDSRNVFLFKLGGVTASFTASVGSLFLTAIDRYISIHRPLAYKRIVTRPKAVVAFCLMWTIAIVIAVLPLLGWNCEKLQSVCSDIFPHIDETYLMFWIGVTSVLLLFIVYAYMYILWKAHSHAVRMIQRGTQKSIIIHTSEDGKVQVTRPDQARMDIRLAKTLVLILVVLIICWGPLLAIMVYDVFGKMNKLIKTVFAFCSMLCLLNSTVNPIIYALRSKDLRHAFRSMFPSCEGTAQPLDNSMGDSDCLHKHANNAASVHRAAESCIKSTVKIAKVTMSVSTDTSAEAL

## CCc1c(C(=O)NCCc2ccc(N3CCCCC3)cc2)[nH]c2ccc(N=C=S)cc12 [GAT100, 3-ethyl-5-isothiocyanato-N-(4-(piperidin-1-yl)phenethyl)-1H-indole-2-carboxamide]
CB1R [1]
  EC50: 410 nM
CB1R [1]; 10 μM
  [3H]SR141716A binding at 10 μM: did not completely abrogate
CB1R [1]; EC50 ratio
  fold greater potency than Org27569 as inhibitor of [3H]SR141716A binding: ~ 6 fold
CB1R [1]; read-out: Emax, [3H]SR141716A binding
  Emax: 22.6%
CB1R [2]
  IC50: 741 nM
CB1R [2]; HEK-CRE, 10 μM forskolin + 1 nM to 10 μM compound alone, 4 h
  effect on cAMP levels in the absence of orthosteric agonists (inverse agonism): did not affect cAMP accumulation
CB1R [2]; IC50, cAMP, CP55,940
  IC50: 834 nM
CB1R [2]; mean of data for the pathway (Table 4), cAMP Emax divided by 100
  Emax, cAMP (pathway ligand bias summary): 0.16 ± 0.04
hCB1R; [17]
  BF β-arrestin1/cAMP: 1.0
  BF β-arrestin1/pERK1/2: 1.0
  BF β-arrestin1/pPLCβ3: 1.0
  ΔΔlog R β-arrestin1/cAMP: 0.0 ± 0.1
  ΔΔlog R β-arrestin1/pPLCβ3: 0.0
hCB1R; [18]
  BF β-arrestin1/cAMP: 0.8
  BF β-arrestin1/pERK1/2: 0.3
  BF β-arrestin1/pPLCβ3: 0.1
  ΔΔlog R β-arrestin1/cAMP: –0.1 ± 0.1
  ΔΔlog R β-arrestin1/pPLCβ3: –1.2 ± 0.8
hCB1R; [19]
  BF β-arrestin1/cAMP: 1.3
  BF β-arrestin1/pERK1/2: 0.6
  BF β-arrestin1/pPLCβ3: 0.6
  ΔΔlog R β-arrestin1/cAMP: 0.1 ± 0.1
  ΔΔlog R β-arrestin1/pPLCβ3: –0.2 ± 0.1
CB1R [3]
  Emax, ERK (pathway ligand bias summary): 0.32 ± 0.01
CB1R [4]; 1 nM-10 μM 2-AG + 1 μM NAM
  Emax pERK1/2/Total ERK1/2, 2-AG: 0.31 ± 0.02
CB1R [4]; 1 nM-10 μM AEA + 1 μM NAM
  Emax pERK1/2/Total ERK1/2, AEA: 0.28 ± 0.02
CB1R [4]; 1 nM-10 μM CP55,940 + 1 μM NAM
  Emax pERK1/2/Total ERK1/2, CP55,940: 0.33 ± 0.02
CB1R [5]; [17]
  BF β-arrestin1/pERK1/2: 1.0
  BF β-arrestin1/pPLCβ3: 1.0
CB1R [5]; [18]
  BF β-arrestin1/pERK1/2: 1.3
  BF β-arrestin1/pPLCβ3: 7.9
CB1R [5]; [19]
  BF β-arrestin1/pERK1/2: 0.6
  BF β-arrestin1/pPLCβ3: 5.0
CB1R [6]; 1 nM-10 μM 2-AG + 1 μM NAM
  Emax pERK1/2/Total ERK1/2, 2-AG: 0.33 ± 0.02
CB1R [6]; 1 nM-10 μM AEA + 1 μM NAM
  Emax pERK1/2/Total ERK1/2, AEA: 0.31 ± 0.02
CB1R [6]; 1 nM-10 μM CP55,940 + 1 μM NAM
  Emax pERK1/2/Total ERK1/2, CP55,940: 0.29 ± 0.02
CB1R [7]
  Emax, PLCβ3 (pathway ligand bias summary): 0.38 ± 0.01
CB1R [8]; 1 nM-10 μM 2-AG + 1 μM NAM
  Emax pPLCβ3/Total PLCβ3, 2-AG: 0.34 ± 0.02
CB1R [8]; 1 nM-10 μM AEA + 1 μM NAM
  Emax pPLCβ3/Total PLCβ3, AEA: 0.37 ± 0.02
CB1R [8]; 1 nM-10 μM CP55,940 + 1 μM NAM
  Emax pPLCβ3/Total PLCβ3, CP55,940: 0.39 ± 0.02
CB1R [9]; 1 nM-10 μM 2-AG + 1 μM NAM
  Emax (BRETEff), 2-AG: 0.25 ± 0.03
CB1R [9]; 1 nM-10 μM AEA + 1 μM NAM
  Emax (BRETEff), AEA: 0.29 ± 0.02
CB1R [9]; 1 nM-10 μM CP55,940 + 1 μM NAM
  Emax (BRETEff), CP55,940: 0.34 ± 0.02
CB1R [10]
  IC50: 35.8 nM
CB1R [10]; mean of data for the pathway (Table 1), all cells and orthosteric ligands
  Emax, β-arrestin1 (pathway ligand bias summary): 0.30 ± 0.01
CB1R [11]
  effect on CP55,940 equilibrium binding by CB1R: increase CP55,940 equilibrium binding
CB1R [12]; [17]
  BF β-arrestin1/pERK1/2: 1.0
  BF β-arrestin1/pPLCβ3: 1.0
  ΔΔlog R β-arrestin1/pPLCβ3: 0.0 ± 0.1
CB1R [12]; [18]
  BF β-arrestin1/pERK1/2: 7.9
  BF β-arrestin1/pPLCβ3: 15.8
  ΔΔlog R β-arrestin1/pPLCβ3: 1.2 ± 0.1
CB1R [12]; [19]
  BF β-arrestin1/pERK1/2: 10.0
  BF β-arrestin1/pPLCβ3: 3.2
  ΔΔlog R β-arrestin1/pPLCβ3: 0.5 ± 0.2
CB1R [13]; 1 nM-10 μM 2-AG + 1 μM NAM
  Emax (BRETEff), 2-AG: 0.29 ± 0.01
CB1R [13]; 1 nM-10 μM AEA + 1 μM NAM
  Emax (BRETEff), AEA: 0.37 ± 0.03
CB1R [13]; 1 nM-10 μM CP55,940 + 1 μM NAM
  Emax (BRETEff), CP55,940: 0.30 ± 0.04
CB1R [14]; mean of data for 2-AG (Tables 1-4)
  Emax, 2-AG (probe dependence summary): 0.31 ± 0.02
CB1R [14]; mean of data for AEA (Tables 1-4)
  Emax, AEA (probe dependence summary): 0.36 ± 0.03
CB1R [14]; mean of data for CP55,940 (Tables 1-4)
  Emax, CP55,940 (probe dependence summary): 0.33 ± 0.02
CB1R [14]; mean of data for HEK293A (Tables 1-3)
  Emax, HEK293A (cell dependence summary): 0.34 ± 0.01
CB1R [14]; mean of data for Neuro2a (Tables 1-3)
  Emax, Neuro2a (cell dependence summary): 0.32 ± 0.01
CB1R [14]; mean of data for STHdh^Q7/Q7 (Tables 1-3)
  Emax, STHdh^Q7/Q7 (cell dependence summary): 0.34 ± 0.02
CB1R [15]
  effect on CP55,940-induced CB1R internalization (fraction of CB1R at the plasma membrane): reversed this effect
CB1R [16]; HEK293A, 1 nM-10 μM 2-AG + 1 μM NAM, 10 min
  Emax pPLCβ3/Total PLCβ3, 2-AG: 0.39 ± 0.02
CB1R [16]; HEK293A, 1 nM-10 μM AEA + 1 μM NAM, 10 min
  Emax pPLCβ3/Total PLCβ3, AEA: 0.36 ± 0.01
CB1R [16]; HEK293A, 1 nM-10 μM CP55,940 + 1 μM NAM, 10 min
  Emax pPLCβ3/Total PLCβ3, CP55,940: 0.39 ± 0.01
CB1R [16]; IC50, PLCβ3 phosphorylation, CP55,940
  IC50: 76.6 nM
